The assay has as its target T1, recombinant JAK2 (Homo sapiens, UniProt O60674).
T1 construct: purchased Upstate Cell Signaling Solutions
Description: IC50 value determinations for Jak2 kinase, luminescence-based kinase assay (Kinase-Glo). In kind it is biochemical. The conditions noted are these: Table 1. For orientation: Kinase-Glo measures the ATP left after a reaction by luminescence.

This passage reports IC50 results from patent US8604042B2, “Bi-aryl meta-pyrimidine inhibitors of kinases” (TargeGen, Inc., priority 2005, dated 2013).

Where a name gives a salt, the structure may show the parent alone.

T1 sequence (O60674 808-1132 limits assumed): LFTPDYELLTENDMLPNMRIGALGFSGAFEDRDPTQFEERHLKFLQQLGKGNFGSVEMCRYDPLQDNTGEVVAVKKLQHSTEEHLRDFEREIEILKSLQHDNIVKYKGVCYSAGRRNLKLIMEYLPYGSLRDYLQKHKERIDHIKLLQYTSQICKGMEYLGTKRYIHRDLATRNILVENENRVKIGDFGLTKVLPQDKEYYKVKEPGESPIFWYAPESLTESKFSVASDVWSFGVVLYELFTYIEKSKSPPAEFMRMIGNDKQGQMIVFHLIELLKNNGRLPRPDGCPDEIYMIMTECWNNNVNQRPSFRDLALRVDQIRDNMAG

Usually IC50 stands for the concentration needed to halve the response being measured. Consider `Cc1cnc(Nc2ccc(OC3CCNCC3)cc2)nc1Nc1cccc2[nH]ccc12` [N4-(1H-indol-4-yl)-5-methyl-N2-(4-(piperidin-4-yloxy)phenyl)pyrimidine-2,4-diamine trifluoroacetic acid salt], for which the IC50 turned out to be 4.27 nM.

As for `Cc1cnc(Nc2ccc(OCCN3CCCC3)cc2)nc1Nc1ccc(Cl)c(Cl)c1` [N4-(3,4-Dichloro-phenyl)-5-methyl-N2-[4-(2-pyrrolidin-1-yl-ethoxy)-phenyl]-pyrimidine-2,4-diamine], the IC50 is 25.7 nM.

For `COc1cc(Nc2nc(Nc3ccc(OC4CCNCC4)cc3)ncc2C)cc(OC)c1` [N4-(3,5-dimethoxyphenyl)-5-methyl-N2-(4-(piperidin-4-yloxy)phenyl)pyrimidine-2,4-diamine trifluoroacetate], the IC50 was 137 nM.

As to `Cc1cnc(Nc2ccc(N3CCN(C)CC3)cc2)nc1Nc1cccc(-n2cccc2)c1` [N4-(3-(1H-pyrrol-1-yl)phenyl)-5-methyl-N2-(4-(4-methylpiperazin-1-yl)phenyl)pyrimidine-2,4-diamine], the IC50 turned out to be 33.8 nM.

On to `Cc1cnc(Nc2ccc(N3CCN(C)CC3)cc2)nc1Nc1cccc(C(F)(F)F)c1C` [N4-(3-(trifluoromethyl)-2-methylphenyl)-5-methyl-N2-(4-(4-methylpiperazin-1-yl)phenyl)pyrimidine-2,4-diamine hydrochloride], for which the IC50 worked out at 87.1 nM.

With `Cc1cnc(Nc2ccc(OCCN3CCCC3)cc2)nc1Nc1cccc(Cl)c1` [N4-(3-Chloro-phenyl)-5-methyl-N2-[4-(2-pyrrolidin-1-yl-ethoxy)-phenyl]-pyrimidine-2,4-diamine], the 50% inhibitory concentration (IC50) worked out at 20.8 nM.

In the case of `Cc1cnc(Nc2ccc(OCCN3CCCC3)cc2)nc1Nc1cccc(N(C)C)c1` [N4-(3-Dimethylamino-phenyl)-5-methyl-N2-[4-(2-pyrrolidin-1-yl-ethoxy)-phenyl]-pyrimidine-2,4-diamine], the IC50 was found to be 19.7 nM.

Regarding `Cc1ccc(Nc2nc(Nc3ccc(N4CCN(C)CC4)cc3)ncc2C)cc1S(C)(=O)=O` [N4-(3-Methanesulfonyl-4-methyl-phenyl)-5-methyl-N2-[4-(4-methyl-piperazin-1-yl)-phenyl]-pyrimidine-2,4-diamine], the IC50 was determined as 160 nM.

For the molecule `COc1cccc(Nc2ccnc(Nc3ccc(OCCN4CCCC4)cc3)n2)c1C` [N4-(3-Methoxy-2-methyl-phenyl)-N2-[4-(2-pyrrolidin-1-yl-ethoxy)-phenyl]-pyrimidine-2,4-diamine], the IC50 came out at 371 nM.

As to `Cc1cnc(Nc2ccc(C(C)N3CCOCC3)cc2)nc1Nc1cccc(C(C)(C)C)c1` (stereo not drawn) [N4-(3-tert-butylphenyl)-5-methyl-N2-(4-(1-morpholinoethyl)-phenyl)pyrimidine-2,4-diamine Hydrochloride], the IC50 is 19.9 nM.

On to `Cc1cnc(Nc2ccc(-n3ccnc3C)cc2)nc1Nc1cccc(C(C)(C)C)c1` [N4-(3-tert-butylphenyl)-5-methyl-N2-(4-(2-methyl-1H-imidazol-1-yl)phenyl)pyrimidine-2,4-diamine Hydrochloride], for which the IC50 stood at 38.4 nM.

As for `Cc1cnc(Nc2ccc(N3CCN(C)CC3)cc2)nc1Nc1cccc(C(C)(C)C)c1` [N4-(3-tert-butylphenyl)-5-methyl-N2-(4-(4-methylpiperazin-1-yl)phenyl)pyrimidine-2,4-diamine Hydrochloride], the IC50 turned out to be 4.7 nM.

Turning to `Cc1cnc(Nc2ccc(C3CCNCC3)cc2)nc1Nc1cccc(C(C)(C)C)c1` [N4-(3-tert-butylphenyl)-5-methyl-N2-(4-(piperidin-4-yl)phenyl)pyrimidine-2,4-diamine Hydrochloride], the IC50 stood at 20.9 nM.

On to `Cc1cnc(Nc2ccc(OC3CCNCC3)cc2)nc1Nc1cccc(C(C)(C)C)c1` [N4-(3-tert-butylphenyl)-5-methyl-N2-(4-(piperidin-4-yloxy)phenyl)pyrimidine-2,4-diamine Hydrochloride], for which the IC50 is 2.73 nM.

Take `Cc1cnc(Nc2ccc(OCCN3CCCC3)cc2)nc1Nc1ccc(Cl)c(F)c1` [N4-(4-Chloro-3-fluoro-phenyl)-5-methyl-N2-[4-(2-pyrrolidin-1-yl-ethoxy)-phenyl]-pyrimidine-2,4-diamine]: the IC50 came out at 40.1 nM.

Consider `COc1cc(Nc2nc(Nc3cccc(N4CCNCC4)c3)ncc2C)ccc1Cl` [N4-(4-Chloro-3-methoxy-phenyl)-5-methyl-N2-(3-piperazin-1-yl-phenyl)-pyrimidine-2,4-diamine], for which the IC50 was determined as 9.52 nM.

For `COc1cc(Nc2nc(Nc3cccc(CN4CCNCC4)c3)ncc2C)ccc1Cl` [N4-(4-Chloro-3-methoxy-phenyl)-5-methyl-N2-(3-piperazin-1-ylmethyl-phenyl)-pyrimidine-2,4-diamine], the IC50 came out at 15.8 nM.

Regarding `COc1cc(Nc2nc(Nc3ccc(N4CCOCC4)cc3)ncc2C)ccc1Cl` [N4-(4-Chloro-3-methoxy-phenyl)-5-methyl-N2-(4-morpholin-4-yl-phenyl)-pyrimidine-2,4-diamine], the IC50 was found to be 130 nM.

As for `COc1cc(Nc2nc(Nc3ccc(CN4CCOCC4)cc3)ncc2C)ccc1Cl` [N4-(4-Chloro-3-methoxy-phenyl)-5-methyl-N2-(4-morpholin-4-ylmethyl-phenyl)-pyrimidine-2,4-diamine trifluoroacetate], the IC50 is 13.3 nM.

In the case of `COc1cc(Nc2nc(Nc3ccc(CN4CCNCC4)cc3)ncc2C)ccc1Cl` [N4-(4-Chloro-3-methoxy-phenyl)-5-methyl-N2-(4-piperazin-1-ylmethyl-phenyl)-pyrimidine-2,4-diamine], the IC50 was 15.2 nM.

Consider `COc1cc(Nc2nc(Nc3ccc(N4CCCCC4)cc3)ncc2C)ccc1Cl` [N4-(4-Chloro-3-methoxy-phenyl)-5-methyl-N2-(4-piperidin-1-yl-phenyl)-pyrimidine-2,4-diamine], for which the IC50 was 35.3 nM.

Take `COc1cc(Nc2nc(Nc3ccc(-n4cccn4)cc3)ncc2C)ccc1Cl` [N4-(4-Chloro-3-methoxy-phenyl)-5-methyl-N2-(4-pyrazol-1-yl-phenyl)-pyrimidine-2,4-diamine trifluoroacetate]: the half-inhibitory concentration (IC50) turned out to be 35.3 nM.

With `COc1cc(Nc2nc(Nc3ccc(Cn4cccn4)cc3)ncc2C)ccc1Cl` [N4-(4-Chloro-3-methoxy-phenyl)-5-methyl-N2-(4-pyrazol-1-ylmethyl-phenyl)-pyrimidine-2,4-diamine], the IC50 was 18.9 nM.

On to `COc1cc(Nc2nc(Nc3ccc(N4CCNCC4)nc3)ncc2C)ccc1Cl` [N4-(4-Chloro-3-methoxy-phenyl)-5-methyl-N2-(6-piperazin-1-yl-pyridin-3-yl)-pyrimidine-2,4-diamine], for which the IC50 turned out to be 12.1 nM.

As for `COc1cc(Nc2nc(Nc3ccc(N4CCN(C)CC4)cc3)ncc2C)ccc1Cl` [N4-(4-Chloro-3-methoxy-phenyl)-5-methyl-N2-[4-(4-methyl-piperazin-1-yl)-phenyl]-pyrimidine-2,4-diamine], the IC50 was found to be 5.5 nM.

For the molecule `COc1cc(Nc2nc(Nc3ccc(CN4CCN(C)CC4)cc3)ncc2C)ccc1Cl` [N4-(4-Chloro-3-methoxy-phenyl)-5-methyl-N2-[4-(4-methyl-piperazin-1-ylmethyl)-phenyl]-pyrimidine-2,4-diamine], the IC50 turned out to be 12 nM.

As for `COc1cc(Nc2nc(Nc3ccc(S(=O)(=O)C4CCNCC4)cc3)ncc2C)ccc1Cl` [N4-(4-Chloro-3-methoxy-phenyl)-5-methyl-N2-[4-(piperidine-4-sulfonyl)-phenyl]-pyrimidine-2,4-diamine], the IC50 was 13 nM.
